Test results published in patent publication US11591596B2, “Compounds and compositions including phosphorothioated oligodeoxynucleotide, and methods of use thereof” (City of Hope, priority 2015, dated 2023).

What was measured:
[1] = tested on: CML cells in SCLtTA/BCR-ABL mice; assay: In vivo treatment of SCLtTA/BCR-ABL mice; parameters: species or system mouse; details: 3 weeks, compared with NIL+SCR
Description: SCLtTA/BCR-ABL mice were treated with CpG-miR-126 inhibitor (5 mg/kg, every other day, iv injection), SCR (5 mg/kg, every other day, iv injection), NIL (50 mg/kg, daily by garage)+SCR, NIL+miR-126 inhibitor for 3 weeks and then the remaining CML cells in the PB (FIG. 13A), BM (FIG. 13C) and spleen (FIG. 13D) were analyzed.
FIGS. 14A-D are scatter plots showing reduced CML LSK and LSC observed in the bone marrow (BM) (FIGS. 14A, 14C) and spleen (FIGS. 14B, 14D) of the mice treated with NIL+miR126 inhibitor compared with the mice treated with NIL+SCR. SCLtTA/BCR-ABL mice were treated with CpG-miR-126 inhibitor, SCR, NIL+SCR, NIL+miR-126 inhibitor for 3 weeks and then the remaining CML LSK primitive cells and LSC in the BM and spleen were analyzed.
SCLtTA/BCR-ABL mice were treated with CpG-miR-126 inhibitor (5 mg/kg, every other day, iv injection), SCR (5 mg/kg, every other day, iv injection), NIL (50 mg/kg, daily by garage)+SCR, NIL+miR-126 inhibitor for 3 weeks and then the remaining CML cells in the PB, BM and spleen were analyzed. […] The effect of CpG-anti-miR-126 on growth of primary AML LSC and therapeutic response in vivo is still ongoing. These observations indicate that blocking of miR-126 by a myeloid cell-specific CpG-anti-miR-126 ODN inhibitor, among other compounds of the present disclosure, is very effective, and therefore represents a novel therapeutic method targeting miRNA in leukemia and other types of cancer disclosed herein.

[2] = tested on: CML (K562) and AML cell lines (KG1A, MV4-11, Molm13, NB4, OCI and HL60); assay: Uptake in AML and CML cell lines, Cy3 by flow cytometry; assay type: cell-based, human; details: 4 hours
Description: FIGS. 3A-3G are flow cytometry histograms showing results of CpG-anti-miR-126 uptake in AML and CML cell lines. Cells were cultured with miR126-inhibitor-Cy3 (Cy3-200 nM0, human CD45 (Ab-200 nM) or Transferrin (TF-200 nM)-conjugated nanoparticles (NP) containing antagomiR-126-Cy3, CpG-miR126 inhibitor-Cy3 (CpG-Cy3-200 nM and 500 nM) for 4 hours, then uptake was analyzed by measuring Cy3 expression in these cells by flow cytometry. FIG. 3A is a histogram showing uptake in K562 cells. FIG. 3B is a histogram showing uptake in KG1A AML cells. FIG. 3C is a histogram showing uptake in MV4-11 AML cells. FIG. 3D is a histogram showing uptake in Molm13 AML cells. FIG. 3E is a histogram showing uptake in NB4 AML cells. FIG. 3F is a histogram showing uptake in OCI AML cells. FIG. 3G is a histogram showing uptake in HL60 AML cells.
CML (K562) (FIG. 3A) and AML cell lines (KG1A, MV4-11, Molm13, NB4, OCI and HL60) (FIGS. 3B-3G) were cultured with anti-miR126 inhibitor-Cy3 (Cy3-200 nM) alone, human CD45 (Ab-200 nM) or Transferrin (TF-200 nM)-conjugated nanoparticles (NP) containing anti-miR126-Cy3 or unformulated CpG-anti-miR126 inhibitor—Cy3 in two concentrations (200 nM and 500 nM) for 4 hours, the uptake was analyzed by measuring Cy3 expression in these cells by flow cytometry.

[3] = 5 mg/kg every other day iv + NIL 50 mg/kg daily

**Q.** Which “CML white blood cells in the PB” value [1, 3] does the source give for “5′ G*G*T GCA TCG ATG CAGG*G*G* G*G (SEQ ID NO: 1) xxxxx mCmGmC mAmUmU mAmUmU mAmCmU mCmAmC mGmGmU mAmCmG mA (SEQ ID NO: 17) 3′ [CpG-anti-miR126]” here?
**A.** Its value is “Reduced CML white blood cells”.

**Q.** And the spleen weight [1, 3]?
**A.** The spleen weight was “Reduced spleen weight”.

**Q.** And the “CML LSK in the BM and spleen” value ([1]; with NIL)?
**A.** Its value is “Reduced”.

**Q.** What about the “CML LTHSC in the BM and spleen” value ([1]; with NIL) of the same substance?
**A.** The value was “Reduced”.

**Q.** What about the “CML cells in the BM and spleen” value ([1]; with NIL) of the same substance?
**A.** The value was “Reduced”.

**Q.** What about the “internalization (Cy3 uptake)” value ([2]; 200 nM and 500 nM, no transfection reagents) of the same substance?
**A.** Its value is “quickly and dose-dependently internalized”.

**Q.** What about the “level of internalization compared with other oligonucleotides including NP-formulated anti-miR126 inhibitor” value ([2]; absence of any transfection reagents) of the same substance?
**A.** Its value is “exceeded that of all other oligonucleotides”.
